± gives the standard deviation of the averaged measurements.
Tests used:
PLX-4720 = compound: CCCS(=O)(=O)Nc1ccc(F)c(C(=O)c2c[nH]c3ncc(Cl)cc23)c1F [PLX-4720]; assay: surviving fraction relative to DMSO-only wells; higher = less growth inhibition; details: exposure time: 5 days
Method in brief: (§1)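 Five days of continuous inhibitor exposure, at 0.5, 1, 5, 10, 50, 100, 500 and 1000 nM, followed a 24-hour period after log-phase tumour cell lines were seeded at 250–500 cells per well in 384-well plates. Surviving fraction was derived from CellTiter-Glo luminescence relative to the median of DMSO-only wells. Plates were read after 10 minutes at room temperature, and lines screened three times were kept only if replicate Pearson r >0.7 and median Z' >0.3.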

MK0752 = compound: O=C(O)CC[C@H]1CC[C@@](c2cc(F)ccc2F)(S(=O)(=O)c2ccc(Cl)cc2)CC1 [MK0752]; assay: as above; details: exposure time: 5 days
Method in brief: as §1

| Test System | surviving fraction (PLX-4720; 0.5 nM) | surviving fraction (PLX-4720; 1 nM) | surviving fraction (PLX-4720; 5 nM) | surviving fraction (PLX-4720; 10 nM) | surviving fraction (PLX-4720; 50 nM) | surviving fraction (PLX-4720; 100 nM) | surviving fraction (PLX-4720; 500 nM) | surviving fraction (PLX-4720; 1000 nM) | surviving fraction (MK0752; 0.5 nM) | surviving fraction (MK0752; 1 nM) | surviving fraction (MK0752; 5 nM) | surviving fraction (MK0752; 10 nM) | surviving fraction (MK0752; 50 nM) | surviving fraction (MK0752; 100 nM) | surviving fraction (MK0752; 500 nM) | surviving fraction (MK0752; 1000 nM) |
| --- | --- | --- | --- | --- | --- | --- | --- | --- | --- | --- | --- | --- | --- | --- | --- | --- |
| HCC70 BREAST | 1.02 ± 0.06 | 0.984 ± 0.14 | 1.04 ± 0.034 | 1.02 ± 0.034 | 1.03 ± 0.068 | 1.03 ± 0.091 | 1.03 ± 0.12 | 0.963 ± 0.082 | 1.1 ± 0.079 | 1.07 ± 0.05 | 1.132 ± 0.01 | 1.08 ± 0.029 | 1.11 ± 0.073 | 1.08 ± 0.13 | 1.03 ± 0.055 | 0.924 ± 0.074 |
| HCC78 LUNG | 0.318 ± 0.06 | 1.01 ± 0.17 | 0.964 ± 0.06 | 1.05 ± 0.3 | 0.761 ± 0.13 | 1.01 ± 0.077 | 0.869 ± 0.04 | 0.951 ± 0.12 | 0.916 ± 0.12 | 0.966 ± 0.16 | 1.08 ± 0.16 | 1.07 ± 0.12 | 1.17 ± 0.062 | 1.06 ± 0.15 | 0.839 ± 0.24 | 0.957 ± 0.17 |
| HCC202 BREAST | 0.964 ± 0.1 | 1.22 ± 0.12 | 1.08 ± 0.17 | 1.09 ± 0.046 | 1.2 ± 0.11 | 1.46 ± 0.26 | 1.12 ± 0.28 | 1.06 ± 0.33 | 1.28 ± 0.66 | 0.775 ± 0.51 | 0.94 ± 0.78 | 1.27 ± 0.18 | 1.23 ± 0.21 | 1.21 ± 0.1 | 1.31 ± 0.069 | 1.39 ± 0.36 |
| HCC1806 BREAST | 0.727 ± 0.073 | 0.808 ± 0.067 | 0.861 ± 0.069 | 0.879 ± 0.042 | 0.858 ± 0.09 | 1.02 ± 0.052 | 0.855 ± 0.13 | 0.871 ± 0.076 | 0.974 ± 0.05 | 1.15 ± 0.15 | 1.23 ± 0.1 | 1.21 ± 0.086 | 1.28 ± 0.043 | 1.23 ± 0.14 | 1.19 ± 0.075 | 1.25 ± 0.025 |
| HCC1954 BREAST | 0.487 ± 0.0099 | 0.487 ± 0.028 | 0.455 ± 0.038 | 0.452 ± 0.053 | 0.55 ± 0.029 | 0.476 ± 0.027 | 0.466 ± 0.072 | 0.403 ± 0.0074 | 0.922 ± 0.069 | 0.747 ± 0.054 | 1.18 ± 0.13 | 1.15 ± 0.15 | 1 ± 0.05 | 0.904 ± 0.02 | 0.741 ± 0.05 | 0.808 ± 0.073 |
| HCT15 LARGE INTESTINE | 0.419 ± 0.018 | 0.875 ± 0.043 | 0.755 ± 0.072 | 0.866 ± 0.029 | 0.513 ± 0.025 | 0.926 ± 0.046 | 0.886 ± 0.077 | 1.03 ± 0.026 | 1.1 ± 0.032 | 1.08 ± 0.05 | 1.11 ± 0.032 | 1.09 ± 0.055 | 1.09 ± 0.029 | 1.1 ± 0.024 | 1.09 ± 0.044 | 1.082 ± 0.0067 |
| HELA CERVIX | 0.96 ± 0.039 | 0.947 ± 0.051 | 0.957 ± 0.069 | 0.953 ± 0.022 | 1 ± 0.046 | 1.01 ± 0.025 | 1 ± 0.055 | 1.06 ± 0.058 | 1.07 ± 0.098 | 1.14 ± 0.056 | 1.08 ± 0.023 | 1.09 ± 0.035 | 1.13 ± 0.16 | 1.2 ± 0.087 | 1.2 ± 0.034 | 1.2 ± 0.09 |
| HMLE3 BREAST | 0.225 ± 0.027 | 0.8523 ± 0.007 | 0.721 ± 0.039 | 0.851 ± 0.049 | 0.556 ± 0.041 | 1.03 ± 0.031 | 1.14 ± 0.036 | 1.15 ± 0.085 | 0.958 ± 0.049 | 1.06 ± 0.039 | 1.08 ± 0.024 | 1.06 ± 0.062 | 0.999 ± 0.086 | 1.02 ± 0.066 | 0.979 ± 0.1 | 0.978 ± 0.069 |
| HMT3552 BREAST | 1.04 | 0.993 | 1.01 | 0.978 | 1.23 | 1.17 | 1.11 | 1.1 | 1.05 | 1.07 | 1.01 | 0.985 | 1.04 | 1.16 | 1.11 | 1.12 |
| HOS BONE | 0.92 ± 0.012 | 0.928 ± 0.014 | 0.935 ± 0.017 | 0.964 ± 0.0053 | 0.992 ± 0.015 | 0.995 ± 0.0027 | 0.96 ± 0.0078 | 1.01 ± 0.019 | 1.03 ± 0.026 | 1.02 ± 0.037 | 1.058 ± 0.01 | 1.04 ± 0.016 | 1.1 ± 0.024 | 1.1 ± 0.035 | 1.03 ± 0.046 | 1.1 ± 0.023 |
| HOSMNG BONE | 0.959 ± 0.026 | 0.962 ± 0.025 | 1 ± 0.061 | 0.985 ± 0.041 | 0.991 ± 0.16 | 1.04 ± 0.079 | 1 ± 0.12 | 1.03 ± 0.092 | 0.936 ± 0.023 | 1.02 ± 0.037 | 0.959 ± 0.052 | 0.981 ± 0.046 | 1.05 ± 0.028 | 1.05 ± 0.029 | 1.06 ± 0.061 | 1.04 ± 0.024 |
| HS57T BREAST | 0.9 ± 0.06 | 0.898 ± 0.057 | 0.947 ± 0.069 | 0.964 ± 0.065 | 0.921 ± 0.059 | 0.982 ± 0.03 | 0.92 ± 0.019 | 0.962 ± 0.054 | 1.09 ± 0.048 | 1.09 ± 0.059 | 1.18 ± 0.061 | 1.14 ± 0.1 | 1.13 ± 0.048 | 1.19 ± 0.077 | 1.02 ± 0.038 | 1.01 ± 0.046 |
| HS578T BREAST | 0.925 ± 0.054 | 0.912 ± 0.021 | 0.908 ± 0.1 | 0.809 ± 0.16 | 0.978 ± 0.13 | 0.92 ± 0.055 | 0.943 ± 0.058 | 0.789 ± 0.11 | 1.02 ± 0.061 | 0.87 ± 0.15 | 0.883 ± 0.11 | 1.01 ± 0.11 | 0.946 ± 0.046 | 0.9 ± 0.056 | 0.833 ± 0.11 | 0.936 ± 0.12 |
| HSSYII SYNOVIAL | 0.231 ± 0.018 | 0.844 ± 0.038 | 0.694 ± 0.065 | 0.838 ± 0.03 | 0.385 ± 0.0033 | 0.9 ± 0.026 | 0.827 ± 0.016 | 0.987 ± 0.046 | 0.985 ± 0.056 | 1 ± 0.056 | 1.03 ± 0.063 | 1.02 ± 0.059 | 1.018 ± 0.0035 | 1.01 ± 0.017 | 0.978 ± 0.029 | 0.955 ± 0.046 |
| HT1080 SOFT TISSUE | 0.981 ± 0.049 | 0.994 ± 0.073 | 0.988 ± 0.025 | 0.989 ± 0.031 | 1.01 ± 0.038 | 0.979 ± 0.031 | 0.934 ± 0.042 | 0.885 ± 0.033 | 0.997 ± 0.018 | 1.02 ± 0.034 | 1.04 ± 0.026 | 1 ± 0.051 | 0.948 ± 0.019 | 1.02 ± 0.04 | 0.984 ± 0.0089 | 0.989 ± 0.029 |
| HU09 BONE | 0.863 ± 0.032 | 0.959 ± 0.13 | 0.873 ± 0.013 | 0.941 ± 0.071 | 1.01 ± 0.07 | 0.946 ± 0.14 | 0.898 ± 0.11 | 1 ± 0.11 | 0.995 ± 0.11 | 1.06 ± 0.052 | 1.11 ± 0.052 | 1.181 ± 0.0032 | 1.12 ± 0.069 | 1.06 ± 0.088 | 0.984 ± 0.14 | 1.03 ± 0.063 |

Source: the supplement of paper PMC6045584
